Experimental data as given in ChEMBL document CHEMBL4680245, “Design, synthesis and biological evaluation of tetrahydroquinoline-based reversible LSD1 inhibitors” (Eur J Med Chem, 2020).
Blank lines part the entries; values can stand above or below the molecule they belong to. Active and inactive are the calls of the source. The rule behind the calls is not given here.

Experiments:
[1] = biological target: T1, Lysine-specific histone demethylase 1A (Homo sapiens, UniProt O60341)
Description: Inhibition of human recombinant LSD1 using fluorogenic ADHP based substrate preincubated for 30 mins followed by substrate addition measured after 10 mins by horseradish peroxidase coupled fluorescence assay

[2] = biological target: T1, Lysine-specific histone demethylase 1A; assay: Inhibition of LSD1 (unknown origin) by TR-FRET assay
MGC-803 [3] = assay: cells; conditions: Homo sapiens, MGC-803, 72 h
Description: Antiproliferative activity against human MGC-803 cells incubated for 72 hrs by CCK8 assay

[4] = Intrinsic clearance in human microsomes preincubated for 10 mins followed by NADPH regenerating system addition and measured up to 60 mins by LC-MS/MS analysis; type: ADME, Microsome; conditions: time 10-70 min
[5] = biological target: T2, Amine oxidase [flavin-containing] A (Homo sapiens, UniProt P21397); assay: Inhibition of recombinant N-terminal FLAG-tagged human MAOA expressed in baculovirus infected Sf9 insect cells using luminogenic MAO substrate measured after 1 hr by MAO-glo assay
T2 sequence (P21397 whole entry): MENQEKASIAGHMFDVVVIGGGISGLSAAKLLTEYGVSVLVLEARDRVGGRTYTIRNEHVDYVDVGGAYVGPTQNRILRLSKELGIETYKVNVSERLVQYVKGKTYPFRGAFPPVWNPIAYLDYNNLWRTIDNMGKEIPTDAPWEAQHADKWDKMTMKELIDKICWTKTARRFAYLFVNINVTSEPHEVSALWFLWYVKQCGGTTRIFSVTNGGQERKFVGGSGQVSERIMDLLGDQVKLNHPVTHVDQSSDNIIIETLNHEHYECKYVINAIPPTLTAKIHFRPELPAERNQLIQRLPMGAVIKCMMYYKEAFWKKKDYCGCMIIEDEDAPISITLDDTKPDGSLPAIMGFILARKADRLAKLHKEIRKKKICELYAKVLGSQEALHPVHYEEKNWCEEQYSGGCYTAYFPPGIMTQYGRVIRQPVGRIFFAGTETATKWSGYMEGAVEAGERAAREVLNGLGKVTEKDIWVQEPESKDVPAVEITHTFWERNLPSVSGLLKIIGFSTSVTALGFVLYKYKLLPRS

CYP2C19 = CYP2C19 (Homo sapiens, UniProt P33261); assay: Inhibition of CYP2C19 in human liver microsomes at 10 uM using CYP substrate preincubated for 10 mins followed by NADPH generating system addition and measured after 10 mins by LC-MS/MS analysis relative to control; type: ADME; conditions: time 20 min
CYP1A2 = biological target: T3, CYP1A2 (Homo sapiens, UniProt P05177); assay: Inhibition of CYP1A2 in human liver microsomes at 10 uM using CYP substrate preincubated for 10 mins followed by NADPH generating system addition and measured after 10 mins by LC-MS/MS analysis relative to control; type: ADME; conditions: time 20 min
T3 sequence (P05177 whole entry): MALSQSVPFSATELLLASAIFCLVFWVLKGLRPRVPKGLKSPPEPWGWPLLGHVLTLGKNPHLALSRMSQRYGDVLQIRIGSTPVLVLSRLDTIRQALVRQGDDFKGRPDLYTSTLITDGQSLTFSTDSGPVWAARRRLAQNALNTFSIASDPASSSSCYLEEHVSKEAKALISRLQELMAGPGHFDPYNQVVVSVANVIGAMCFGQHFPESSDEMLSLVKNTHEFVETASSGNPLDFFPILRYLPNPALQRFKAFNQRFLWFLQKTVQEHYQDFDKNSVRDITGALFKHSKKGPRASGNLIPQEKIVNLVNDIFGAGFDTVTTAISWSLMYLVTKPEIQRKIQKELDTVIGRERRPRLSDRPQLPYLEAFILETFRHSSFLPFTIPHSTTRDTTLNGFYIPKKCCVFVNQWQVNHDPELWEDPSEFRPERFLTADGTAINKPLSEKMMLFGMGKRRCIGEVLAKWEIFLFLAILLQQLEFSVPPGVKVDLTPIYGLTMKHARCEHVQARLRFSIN

[6] = Half life in human liver microsomes preincubated for 10 mins followed by NADPH regenerating system addition and measured up to 60 mins by LC-MS/MS analysis; type: ADME, Microsome; conditions: time 10-70 min
[7] = Stability in human liver microsomes assessed as parent compound remaining preincubated for 10 mins followed by NADPH regenerating system addition and measured up to 60 mins by LC-MS/MS analysis; type: ADME, Microsome; conditions: time 10-70 min, read-out: Stabilty
[8] = biological target: T1, Lysine-specific histone demethylase 1A; assay: Inhibition of LSD1 in human MGC-803 cells assessed as increase in H3K4me2 accumulation measured after 72 hrs by Western blot analysis; type: cell-based
MGC-803 [9] = assay: Antitumor activity against human MGC-803 cells xenografted in Balb/c nude mouse assessed as reduction in tumor weight at 100 mg/kg, po administered once daily via gavage for 21 days measured post last dose relative to control; type: functional; set-up: scale not given: the % may be the effect or the level left; conditions: time 21 day
[10] = biological target: T4, Amine oxidase [flavin-containing] B (Homo sapiens, UniProt P27338); assay: Inhibition of recombinant N-terminal FLAG-tagged human MAOB expressed in baculovirus infected Sf9 insect cells using luminogenic MAO substrate measured after 1 hr by MAO-glo assay
T4 sequence (P27338 whole entry): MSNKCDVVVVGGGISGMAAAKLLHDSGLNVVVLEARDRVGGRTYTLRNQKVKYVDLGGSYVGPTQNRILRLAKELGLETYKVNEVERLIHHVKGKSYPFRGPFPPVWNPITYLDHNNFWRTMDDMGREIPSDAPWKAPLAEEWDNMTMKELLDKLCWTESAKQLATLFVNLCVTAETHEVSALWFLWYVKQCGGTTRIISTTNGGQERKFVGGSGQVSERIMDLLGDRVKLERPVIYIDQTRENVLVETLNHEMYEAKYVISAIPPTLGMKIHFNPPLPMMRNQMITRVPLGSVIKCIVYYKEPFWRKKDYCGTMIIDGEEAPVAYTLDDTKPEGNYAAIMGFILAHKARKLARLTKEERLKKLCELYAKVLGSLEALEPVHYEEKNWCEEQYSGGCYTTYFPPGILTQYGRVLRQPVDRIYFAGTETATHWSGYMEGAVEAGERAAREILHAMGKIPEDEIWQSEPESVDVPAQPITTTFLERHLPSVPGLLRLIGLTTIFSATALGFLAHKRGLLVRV

MGC-803 [11] = assay: Induction of apoptosis in human MGC-803 cells assessed as apoptotic rate at 4 uM after 72 hrs by Annexin V-FITC/propidium iodide staining based flow cytometry relative to control; type: functional
CYP2C9 = CYP2C9 (Homo sapiens, UniProt P11712); assay: Inhibition of CYP2C9 in human liver microsomes at 10 uM using CYP substrate preincubated for 10 mins followed by NADPH generating system addition and measured after 10 mins by LC-MS/MS analysis relative to control; type: ADME; conditions: time 20 min
[12] = Stability in human liver microsomes assessed as parent compound remaining measured 60 mins after mins by LC-MS/MS analysis; type: ADME, Microsome; conditions: microsomes, 1 h
MGC-803 [13] = assay: Cell cycle arrest in human MGC-803 cells assessed as increase in S phase accumulation at 4 uM after 72 hrs by propidium iodide staining based flow cytometry; type: functional
CYP3A4 = CYP3A4 (Homo sapiens, UniProt P08684); assay: Inhibition of CYP3A4 in human liver microsomes at 10 uM using CYP substrate preincubated for 10 mins followed by NADPH generating system addition and measured after 10 mins by LC-MS/MS analysis relative to control; type: ADME; conditions: time 20 min
MGC-803 [14] = assay: Antitumor activity against human MGC-803 cells xenografted in Balb/c nude mouse assessed as reduction in tumor volume at 100 mg/kg, po administered once daily via gavage for 21 days measured post last dose relative to control; type: functional; set-up: scale not given: the % may be the effect or the level left; conditions: time 21 day
[15] = Toxicity in human MGC-803 cells xenografted Balb/c nude mouse assessed as body weight loss at 50 to 100 mg/kg, po administered once daily via gavage for 21 days measured at 3 days interval during compound dosing; type: organism-based; conditions: in vivo, 504 h, dose 50-100 mg/kg, time 21 day
A549 = assay: cells; conditions: Homo sapiens, A549, 72 h
Description: Antiproliferative activity against human A549 cells incubated for 72 hrs by CCK8 assay

PC-3 = assay: cells; conditions: Homo sapiens, PC-3, 72 h
Description: Antiproliferative activity against human PC-3 cells incubated for 72 hrs by CCK8 assay

NB-4 = assay: cells; conditions: Homo sapiens, NB-4, 72 h
Description: Antiproliferative activity against human NB-4 cells incubated for 72 hrs by CCK8 assay

THP-1 = assay: cells; conditions: Homo sapiens, THP-1, 72 h
Description: Antiproliferative activity against human THP-1 cells incubated for 72 hrs by CCK8 assay

MGC-803 [16] = assay: Cell cycle arrest in human MGC-803 cells assessed as decrease in G2/M phase accumulation at 4 uM after 72 hrs by propidium iodide staining based flow cytometry; type: functional
MCF7 = assay: cells; conditions: Homo sapiens, MCF7, 72 h
Description: Antiproliferative activity against human MCF7 cells incubated for 72 hrs by CCK8 assay

MGC-803 [17] = assay: Induction of apoptosis in human MGC-803 cells after 72 hrs by Annexin V-FITC/propidium iodide staining based flow cytometry; type: functional, cell-based
CYP2D6 = CYP2D6 (Homo sapiens, UniProt P10635); assay: Inhibition of CYP2D6 in human liver microsomes at 10 uM using CYP substrate preincubated for 10 mins followed by NADPH generating system addition and measured after 10 mins by LC-MS/MS analysis relative to control; type: ADME; conditions: time 20 min
Chain of CYP2D6 (P10635 whole entry): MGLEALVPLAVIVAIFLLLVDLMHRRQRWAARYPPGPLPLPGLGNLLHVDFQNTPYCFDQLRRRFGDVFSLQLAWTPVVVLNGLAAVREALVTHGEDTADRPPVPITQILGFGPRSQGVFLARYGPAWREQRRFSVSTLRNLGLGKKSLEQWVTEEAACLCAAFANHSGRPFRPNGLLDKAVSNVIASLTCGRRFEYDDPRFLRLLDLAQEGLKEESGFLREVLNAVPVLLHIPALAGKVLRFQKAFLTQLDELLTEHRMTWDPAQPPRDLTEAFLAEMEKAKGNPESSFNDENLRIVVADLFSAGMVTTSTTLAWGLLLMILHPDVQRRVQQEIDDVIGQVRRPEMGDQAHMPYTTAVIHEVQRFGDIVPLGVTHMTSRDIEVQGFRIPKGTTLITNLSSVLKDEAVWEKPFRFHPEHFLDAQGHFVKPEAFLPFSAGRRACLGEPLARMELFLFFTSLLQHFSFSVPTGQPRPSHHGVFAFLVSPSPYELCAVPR

Chain of CYP2C19 (P33261 whole entry): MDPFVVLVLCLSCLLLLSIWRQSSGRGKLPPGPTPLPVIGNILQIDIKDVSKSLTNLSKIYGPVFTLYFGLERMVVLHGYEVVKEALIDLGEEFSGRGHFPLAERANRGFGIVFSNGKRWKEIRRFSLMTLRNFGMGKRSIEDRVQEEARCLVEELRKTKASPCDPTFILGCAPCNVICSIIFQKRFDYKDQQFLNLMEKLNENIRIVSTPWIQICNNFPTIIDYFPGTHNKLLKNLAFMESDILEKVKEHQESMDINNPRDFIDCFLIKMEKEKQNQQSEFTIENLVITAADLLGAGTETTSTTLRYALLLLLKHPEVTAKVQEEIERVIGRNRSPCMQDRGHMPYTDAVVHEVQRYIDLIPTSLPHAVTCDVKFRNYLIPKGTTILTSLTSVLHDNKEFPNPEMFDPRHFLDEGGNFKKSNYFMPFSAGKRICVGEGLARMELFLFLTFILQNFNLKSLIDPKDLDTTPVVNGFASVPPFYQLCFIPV
Chain of CYP3A4 (P08684 whole entry): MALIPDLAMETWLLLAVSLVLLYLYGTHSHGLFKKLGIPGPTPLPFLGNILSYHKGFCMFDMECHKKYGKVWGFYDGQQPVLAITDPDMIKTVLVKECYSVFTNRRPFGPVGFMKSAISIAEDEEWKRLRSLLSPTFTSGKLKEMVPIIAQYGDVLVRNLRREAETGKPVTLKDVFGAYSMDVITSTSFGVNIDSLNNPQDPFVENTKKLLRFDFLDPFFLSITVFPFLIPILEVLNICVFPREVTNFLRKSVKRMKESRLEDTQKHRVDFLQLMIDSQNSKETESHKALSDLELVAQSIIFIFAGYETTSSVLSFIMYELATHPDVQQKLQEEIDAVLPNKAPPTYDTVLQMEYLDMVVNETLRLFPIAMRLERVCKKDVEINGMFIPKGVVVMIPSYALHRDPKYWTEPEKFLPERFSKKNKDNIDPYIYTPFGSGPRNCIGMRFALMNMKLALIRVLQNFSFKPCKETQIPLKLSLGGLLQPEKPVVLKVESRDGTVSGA
Chain of CYP2C9 (P11712 whole entry): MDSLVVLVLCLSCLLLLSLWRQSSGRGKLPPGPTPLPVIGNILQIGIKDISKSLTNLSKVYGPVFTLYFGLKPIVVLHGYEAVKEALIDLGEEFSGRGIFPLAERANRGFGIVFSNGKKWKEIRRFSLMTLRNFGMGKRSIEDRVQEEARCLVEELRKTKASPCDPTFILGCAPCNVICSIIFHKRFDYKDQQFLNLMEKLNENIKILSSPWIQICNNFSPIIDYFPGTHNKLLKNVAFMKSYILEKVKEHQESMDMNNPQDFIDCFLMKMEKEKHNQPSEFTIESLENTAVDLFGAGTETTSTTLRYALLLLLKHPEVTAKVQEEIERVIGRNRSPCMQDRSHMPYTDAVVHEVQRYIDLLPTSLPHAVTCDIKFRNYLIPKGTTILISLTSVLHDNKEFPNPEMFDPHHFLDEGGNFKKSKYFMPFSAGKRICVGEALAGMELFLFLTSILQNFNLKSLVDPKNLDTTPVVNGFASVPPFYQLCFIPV

IC50 [1]: 0.0001 µM | IC50 [2]: 0.0078 µM
SMILES: CCOCc1cccc(NC(=O)c2cc3sccc3n2C)c1COc1ccc(OC[C@H]2CCNC2)cc1

IC50 [1]: 0.00054 µM | IC50 (MGC-803 [3]): 1.75 µM | microsomal CLint [4]: 22.4 µL/min/mg | IC50 [5]: > 50 µM | inhibition at 10 min, 10 µM (CYP2C19): 16.1% | inhibition at 10 min, 10 µM (CYP1A2): 4.6% | half-life [6]: 1.03 h | remaining at 1 h [7]: 57.5% | inhibition [8]: Dose-dependent effect | IC50 [10]: > 50 µM | inhibition at 10 min, 10 µM (CYP2C9): 0% | Stabilty [12]: 122.6% | inhibition at 10 min, 10 µM (CYP3A4): 40.1% | IC50 (A549): 3.01 µM | IC50 (PC-3): 4.29 µM | IC50 (NB-4): 1.13 µM | IC50 (THP-1): 9.63 µM | IC50 (MCF7): 9.49 µM | inhibition at 10 min, 10 µM (CYP2D6): 6.1%
SMILES: Cn1c(C(=O)Nc2cccc3c2N(Cc2ccc(OC4CCNCC4)cc2)CCC3)cc2cc(F)ccc21
Activity (MGC-803 [9]): 28.1% | Activity (MGC-803 [11]): 24.86% | Activity (MGC-803 [13]): Active | Activity (MGC-803 [14]): 28.6% | Activity [15]: Non-Toxic | Activity (MGC-803 [16]): Active | Activity (MGC-803 [17]): Dose-dependent effect
